Experimental findings from patent US20090215025A1, “SMALL PEPTIDIC AND PEPTIDO-MIMETIC AFFINITY LIGANDS FOR FACTOR VIII AND FACTOR VIII-LIKE PROTEINS” (TECHNISCHE UNIVERSITAT MUNCHEN, priority 2005, published 2009) are described below.

Experiment [1] addresses T1, plasma-derived (pd-) human Factor VIII (FVIII) (Homo sapiens, UniProt P00451).
T1 construct: from tissue; host or cells: human blood plasma (FVIII concentrate)
The experiment is described as follows: Binding of 125I-labeled pd-FVIII to peptides immobilized on Toyopearl AF-Epoxy-650M resin (micro-beads assay). The conditions noted are these: Table 1. As for the experimental part:
Peptides P1 to P25 were immobilized on the Toyopearl AF-Epoxy-650M resin (Tosoh Biosep) as described by Jungbauer et al. For immobilization, 2.5 mg of each peptide was dissolved in 0.25 mL of the immobilization buffer (0.2 M sodium bicarbonate, pH 10.3), and 0.036 g of the dry resin powder (corresponding to 0.125 mL of swollen resin) was added, followed by incubation of the mixture with gentle rotation for 48 hours. Upon incubation for 48 hours the resin was washed once with immobilization buffer, once with 1 M NaCl and then 3 times with binding buffer, and binding of ^125I-labeled pd-FVIII to the peptide-coated and control resin was tested. The coupling density of each peptide in each of the reported experiments was as mentioned in Table 1. The control 0.25 mL portion of the resin was similarly treated in parallel experiment in the absence of peptide and was subsequently used as a control (designated as Background) in ^125I-pd-FVIII binding experiments. ^125I-pd-FVIII Bound/Background ratios were calculated as the amount of ^125I-pd-FVIII, bound to an immobilized peptide, divided by that bound to uncoated control resin, prepared as described above. This ratio represents a Signal/Noise ratio for the micro-beads assay, since ^125I-pd-FVIII bound to peptide represents the signal value and ^125I-pd-FVIII bound to peptide-uncoated resin represents the background (noise) value.
Plasma-derived (pd-) human Factor VIII (FVIII) was purified from concentrate by immunoaffinity chromatography on an anti-FVIII monoclonal antibody column followed by subsequent concentration of pd-FVIII by ion-exchange chromatography using Resource Q HR5/5 column. To separate FVIII from vWf, concentrate was incubated in 0.35 M NaCl, 0.04 M CaCl2, prior to affinity purification.
Trace amounts of vWf, which are potentially present in pd-FVIII preparation, were removed by passing pd-FVIII preparation through the column with anti-vWf high affinity monoclonal antibody, immobilized at the density 1.4 mg per mL of resin.
Ten μg of purified pd-FVIII were iodinated using lactoperoxidase beads and 0.5 mCi of Na^125I.
(§1) The resin with immobilized peptides was washed in the binding buffer (0.01 M Hepes, 0.1 M NaCl, 5 mM CaCl2, 0.01% Tween-80). Subsequently, the resin was diluted in the binding buffer as 1:7 slurry and aliquoted into Eppendorf tubes (40 μl per tube). ^125I-pd-FVIII (100000 cpm in 10 μl) was added to the tubes and the volume of the mixture was adjusted to 100 μl by adding 50 μl of the binding buffer containing 4% BSA to give a 2% final concentration of BSA. After 2 hours of incubation at room temperature on a rotator, the samples were washed 4 times in the binding. After each wash the tubes were centrifuged at 5000 rpm for 1 min in an Eppendorf microcentrifuge, supernatant was discarded, and the resin was re-suspended in the washing buffer, followed by centrifugation under the same conditions. After four washes the tubes with pellet without supernatant were counted for radioactivity. The resin without peptide was processed similarly to account for non-specific pd-FVIII binding to tubes and resin itself, and the radioactivity in this control tube was considered as a background value. Since ^125I-pd-FVIII contains the some fraction damaged during radiolabeling, binding was calculated as a percent of maximal achievable binding, determined in separate experiment with anti-FVIII Mab 8860-coated resin.
All the measurements were performed in duplicates. Each experiment was performed using two independently prepared immobilized peptide samples. The data presented in each figure are the mean values of the four determinations: duplicate determination in the two assays performed with beads on which peptides were independently immobilized on the different days. […]

Experiment [2] concerns the target T2, ReFacto® (recombinant form of FVIII) (Homo sapiens, UniProt P00451, DEL763-1656).
T2 construct: purchased Wyeth-Ayerst Pharmacia and Upjohn; host or cells: CHO cells
T2 sequence (P00451 with tags, fused parts or gaps DEL763-1656 limits assumed): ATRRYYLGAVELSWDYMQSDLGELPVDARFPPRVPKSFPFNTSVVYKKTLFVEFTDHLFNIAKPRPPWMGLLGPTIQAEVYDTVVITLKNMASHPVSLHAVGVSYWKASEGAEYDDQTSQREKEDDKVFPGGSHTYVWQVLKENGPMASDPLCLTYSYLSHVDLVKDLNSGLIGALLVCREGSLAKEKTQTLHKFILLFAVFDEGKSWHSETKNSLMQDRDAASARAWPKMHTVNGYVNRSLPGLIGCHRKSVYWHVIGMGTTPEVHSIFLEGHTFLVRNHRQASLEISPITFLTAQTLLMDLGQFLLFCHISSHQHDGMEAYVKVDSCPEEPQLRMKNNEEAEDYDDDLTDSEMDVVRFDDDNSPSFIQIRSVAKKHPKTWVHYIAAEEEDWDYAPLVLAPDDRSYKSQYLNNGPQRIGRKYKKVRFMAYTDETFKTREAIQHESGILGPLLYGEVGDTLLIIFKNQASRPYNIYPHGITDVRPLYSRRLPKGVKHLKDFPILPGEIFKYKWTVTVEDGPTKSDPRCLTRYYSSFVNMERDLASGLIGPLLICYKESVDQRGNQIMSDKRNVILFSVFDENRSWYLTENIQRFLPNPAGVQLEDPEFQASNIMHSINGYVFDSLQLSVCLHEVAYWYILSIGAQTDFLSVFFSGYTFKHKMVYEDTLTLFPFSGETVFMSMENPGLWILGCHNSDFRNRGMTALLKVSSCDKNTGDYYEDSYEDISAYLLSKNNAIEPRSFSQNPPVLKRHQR
T2 sequence (P00451 1668-2351 limits assumed): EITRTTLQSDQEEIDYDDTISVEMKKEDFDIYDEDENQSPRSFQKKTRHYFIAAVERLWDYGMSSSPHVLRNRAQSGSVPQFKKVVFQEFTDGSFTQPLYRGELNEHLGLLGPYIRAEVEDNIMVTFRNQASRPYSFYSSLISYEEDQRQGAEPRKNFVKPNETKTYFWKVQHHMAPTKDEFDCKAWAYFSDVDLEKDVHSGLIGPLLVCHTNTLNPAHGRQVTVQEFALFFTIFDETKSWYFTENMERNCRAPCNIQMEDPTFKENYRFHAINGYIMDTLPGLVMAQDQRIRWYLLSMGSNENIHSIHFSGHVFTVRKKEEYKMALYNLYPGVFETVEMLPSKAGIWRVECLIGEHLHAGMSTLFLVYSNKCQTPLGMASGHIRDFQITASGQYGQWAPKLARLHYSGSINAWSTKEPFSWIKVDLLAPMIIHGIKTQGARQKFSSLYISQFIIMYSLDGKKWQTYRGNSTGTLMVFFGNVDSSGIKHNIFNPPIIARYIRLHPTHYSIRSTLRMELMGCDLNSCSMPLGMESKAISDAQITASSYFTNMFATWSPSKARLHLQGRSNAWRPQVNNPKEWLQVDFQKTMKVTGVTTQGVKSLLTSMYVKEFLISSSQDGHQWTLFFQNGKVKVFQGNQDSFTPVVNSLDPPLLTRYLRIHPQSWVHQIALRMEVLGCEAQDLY
The experiment is described as follows: Binding of 125I-ReFacto to peptide-coated resin. To be noted: resin coated with peptide. As for the experimental part:
as §1, with “After each wash the tubes were centrifuged at 5000 rpm for 1 min in an Eppendorf microcentrifuge, supernatant was discarded, and the resin was re-suspended in the washing buffer, followed by centrifugation under the same conditions.” left out, “resin. […]” for “resin.”
(§2) Kogenate® and ReFacto® were iodinated in the same manner as described in Example 1 with respect to the pd-FVIII. Protein binding was measured using the same procedures as described in Example 1 above.

The target in experiment [3] is T3, Kogenate® (recombinant form of FVIII) (Homo sapiens, UniProt P00451).
T3 construct: purchased Bayer; host or cells: baby hamster kidney (BHK) cells
T3 sequence (P00451 20-1667 limits assumed, one chain of several): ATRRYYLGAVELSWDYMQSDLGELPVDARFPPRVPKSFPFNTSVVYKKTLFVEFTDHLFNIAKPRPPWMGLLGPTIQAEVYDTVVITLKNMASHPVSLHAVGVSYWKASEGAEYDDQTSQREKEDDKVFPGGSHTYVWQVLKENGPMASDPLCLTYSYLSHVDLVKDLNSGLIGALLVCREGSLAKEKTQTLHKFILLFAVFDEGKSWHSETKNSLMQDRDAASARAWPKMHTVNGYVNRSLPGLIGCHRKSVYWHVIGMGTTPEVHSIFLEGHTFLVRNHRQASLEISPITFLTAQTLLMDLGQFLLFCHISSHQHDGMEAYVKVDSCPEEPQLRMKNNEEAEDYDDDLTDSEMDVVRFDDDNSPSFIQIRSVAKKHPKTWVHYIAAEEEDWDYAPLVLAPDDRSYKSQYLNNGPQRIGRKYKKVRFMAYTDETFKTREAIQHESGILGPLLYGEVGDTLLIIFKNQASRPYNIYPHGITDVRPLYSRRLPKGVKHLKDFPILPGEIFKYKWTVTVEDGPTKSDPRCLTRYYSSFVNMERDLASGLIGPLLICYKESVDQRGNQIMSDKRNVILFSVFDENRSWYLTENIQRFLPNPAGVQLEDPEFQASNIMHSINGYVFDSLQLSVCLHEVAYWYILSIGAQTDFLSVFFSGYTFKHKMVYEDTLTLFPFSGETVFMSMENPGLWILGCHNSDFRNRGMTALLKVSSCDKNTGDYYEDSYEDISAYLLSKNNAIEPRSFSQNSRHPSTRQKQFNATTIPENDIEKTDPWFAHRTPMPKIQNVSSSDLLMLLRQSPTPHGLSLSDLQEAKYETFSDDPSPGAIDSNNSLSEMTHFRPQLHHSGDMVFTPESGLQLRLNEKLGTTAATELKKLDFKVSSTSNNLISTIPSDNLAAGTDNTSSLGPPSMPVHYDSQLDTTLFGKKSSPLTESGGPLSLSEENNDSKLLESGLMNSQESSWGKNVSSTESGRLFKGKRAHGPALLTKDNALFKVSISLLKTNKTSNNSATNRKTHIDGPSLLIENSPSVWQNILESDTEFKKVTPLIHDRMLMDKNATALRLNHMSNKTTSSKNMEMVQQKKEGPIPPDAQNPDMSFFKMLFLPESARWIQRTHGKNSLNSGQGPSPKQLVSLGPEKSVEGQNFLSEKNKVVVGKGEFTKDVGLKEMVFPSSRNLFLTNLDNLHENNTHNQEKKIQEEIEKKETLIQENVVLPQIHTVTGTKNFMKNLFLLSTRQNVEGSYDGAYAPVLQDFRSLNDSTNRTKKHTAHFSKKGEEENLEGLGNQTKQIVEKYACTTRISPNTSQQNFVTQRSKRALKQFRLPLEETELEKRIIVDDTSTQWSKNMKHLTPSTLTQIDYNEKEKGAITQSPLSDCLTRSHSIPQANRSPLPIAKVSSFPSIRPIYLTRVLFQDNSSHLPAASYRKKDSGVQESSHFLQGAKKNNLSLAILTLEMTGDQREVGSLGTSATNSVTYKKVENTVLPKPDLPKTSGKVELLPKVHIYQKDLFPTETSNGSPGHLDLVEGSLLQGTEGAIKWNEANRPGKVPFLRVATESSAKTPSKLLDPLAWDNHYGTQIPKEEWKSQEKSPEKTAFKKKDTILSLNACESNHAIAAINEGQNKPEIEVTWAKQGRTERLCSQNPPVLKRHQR
As to the kind of experiment: Binding of 125I-Kogenate to peptide-coated resin. The conditions noted are these: resin coated with peptide. As for the experimental part: as §1, with “After each wash the tubes were centrifuged at 5000 rpm for 1 min in an Eppendorf microcentrifuge, supernatant was discarded, and the resin was re-suspended in the washing buffer, followed by centrifugation under the same conditions.” left out, “resin. […]” for “resin.”
as §2

T1 sequence (P00451 20-1667 limits assumed, one chain of several): as above

Regarding IAA-Glu-Tyr-Cys-OH [Compound P15], in experiment [1] (125I-pd-FVIII Bound/Background ratio versus uncoated control resin), the “Binding, rel. to control” value is reported as 39.3 ± 0.3. In experiment [1] (immobilized on Toyopearl AF-Epoxy-650M, percent of maximal achievable binding (anti-FVIII Mab 8860-coated resin), mean of four determinations), the “% Binding pdFVIII” value is listed as 75.4 ± 0.6%. Also, in experiment [2], the “125I-ReFacto binding (% of total)” value was 54.9 ± 6.3 % of total. For the same substance, the “125I-Kogenated FS binding (% of total)” value in experiment [3] is listed as 49.6 ± 1.7 % of total.
